Results as given in ChEMBL document CHEMBL1201862, “PubChem BioAssay data set” (2004).
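Results reflect a 48-hour exposure of cells in 96-well plates to compound at five concentrations. Here, GI50 denotes the concentration required for 50% inhibition of growth.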 The source made the active and inactive calls. Cut-off read from the data, not from the text of the source: active = GI50 up to about 1.1 µM and inactive = higher.

How the values were obtained:
Test in all cases: NCI-60 cell line screen, 48 h
HT-29 = test system: HT-29
ACHN = test system: ACHN
MDA-N = test system: MDA-N
UACC-257 = test system: UACC-257
NCI-H23 = test system: NCI-H23
MDA-MB-435 = test system: MDA-MB-435
SN12C = test system: SN12C
UO-31 = test system: UO-31
SK-MEL-2 = test system: SK-MEL-2
SF-268 = test system: SF-268
HCT-15 = test system: HCT-15
KM12 = test system: KM12
HOP-92 = test system: HOP-92
SK-MEL-28 = test system: SK-MEL-28
M14 = test system: M14
Malme-3M = test system: Malme-3M
LOX IMVI = test system: LOX IMVI
IGROV-1 = test system: IGROV-1
SF-539 = test system: SF-539

Structure (SMILES) | GI50 (HT-29) | GI50 (ACHN) | GI50 (MDA-N) | GI50 (UACC-257) | GI50 (NCI-H23) | GI50 (MDA-MB-435) | GI50 (SN12C) | GI50 (UO-31) | GI50 (SK-MEL-2) | GI50 (SF-268) | GI50 (HCT-15) [µM] | GI50 (KM12) | GI50 (HOP-92) | GI50 (SK-MEL-28) | GI50 (M14) | GI50 (Malme-3M) | GI50 (LOX IMVI) | GI50 (IGROV-1) | GI50 (SF-539)
COc1cc(CNc2ccc3nc4n(c(=O)c3c2)CCCCC4)cc(OC)c1OC | 81.7 µM (inactive) | 35.2 µM (inactive) | 46.2 µM (inactive) | 24.3 µM (inactive) | 37.2 µM (inactive) | 31.7 µM (inactive) | > 100 µM (inactive) | 35.4 µM (inactive) | 40.4 µM (inactive) | 86.7 µM (inactive) | 45.6 | 58.6 µM (inactive) | 76 µM (inactive) | 43.4 µM (inactive) | 94.4 µM (inactive) | 30.7 µM (inactive) | 55.2 µM (inactive) | 95.1 µM (inactive) | > 100 µM (inactive)
CCCNc1ncnc2[nH]ncc12 | > 100 µM (inactive) | > 100 µM (inactive) | > 100 µM (inactive) | > 100 µM (inactive) | > 100 µM (inactive) | > 100 µM (inactive) | > 100 µM (inactive) | > 100 µM (inactive) | > 100 µM (inactive) | > 100 µM (inactive) | > 100 | > 100 µM (inactive) | 87.5 µM (inactive) | > 100 µM (inactive) | > 100 µM (inactive) | > 100 µM (inactive) | > 100 µM (inactive) | > 100 µM (inactive) | > 100 µM (inactive)
CCOC(=O)CC[C@H](NC(=O)[C@H](N)Cc1ccc(N(CCCl)CCCl)cc1)C(=O)OCC | 36.1 µM (inactive) | 4.76 µM (inactive) | 23.2 µM (inactive) | 11 µM (inactive) | 3.08 µM (inactive) | 26.9 µM (inactive) | 14.2 µM (inactive) | 14.1 µM (inactive) | 29.4 µM (inactive) | 1.43 µM (inactive) | 18.1 | 16 µM (inactive) | 3.64 µM (inactive) | 21.6 µM (inactive) | 8.65 µM (inactive) | 3.61 µM (inactive) | 11.6 µM (inactive) | 40.6 µM (inactive) | 9.66 µM (inactive)
COC(=O)C1=CO[C@@H](OC2OC(CO)C(O)C(O)C2O)[C@@H]2[C@H](C)[C@@H](O)[C@@H](O)[C@]12O (stereo not given in full) | > 100 µM (inactive) | > 100 µM (inactive) | > 100 µM (inactive) | > 100 µM (inactive) | > 100 µM (inactive) | > 100 µM (inactive) | > 100 µM (inactive) | > 100 µM (inactive) | > 100 µM (inactive) | > 100 µM (inactive) | > 100 | > 100 µM (inactive) | > 100 µM (inactive) | > 100 µM (inactive) | > 100 µM (inactive) | > 100 µM (inactive) | > 100 µM (inactive) | > 100 µM (inactive) | > 100 µM (inactive)
Cc1ccc2ccc(=O)oc2c1 | > 100 µM (inactive) | > 100 µM (inactive) | > 100 µM (inactive) | > 100 µM (inactive) | > 100 µM (inactive) | > 100 µM (inactive) | > 100 µM (inactive) | > 100 µM (inactive) | > 100 µM (inactive) | > 100 µM (inactive) |  | > 100 µM (inactive) | > 100 µM (inactive) | > 100 µM (inactive) | > 100 µM (inactive) | > 100 µM (inactive) | > 100 µM (inactive) | > 100 µM (inactive) | > 100 µM (inactive)
O=C(O)c1nc2cc(Cl)ccc2[nH]c1=O | > 100 µM (inactive) | > 100 µM (inactive) | > 100 µM (inactive) | > 100 µM (inactive) | > 100 µM (inactive) | > 100 µM (inactive) | > 100 µM (inactive) | > 100 µM (inactive) | > 100 µM (inactive) | > 100 µM (inactive) | > 100 | > 100 µM (inactive) | > 100 µM (inactive) | > 100 µM (inactive) | > 100 µM (inactive) | > 100 µM (inactive) | > 100 µM (inactive) | > 100 µM (inactive) | > 100 µM (inactive)
CCOP(=O)(OCC)/C(C#N)=C\c1cccc2ccccc12 | > 66.1 µM (inactive) | > 75.9 µM (inactive) | 40.6 µM (inactive) | 71.3 µM (inactive) | 78.3 µM (inactive) | 34.7 µM (inactive) | 82.4 µM (inactive) | 56.9 µM (inactive) | > 62.1 µM (inactive) | 21.4 µM (inactive) | 42.7 | > 74.8 µM (inactive) | 23 µM (inactive) | 28.2 µM (inactive) | 80 µM (inactive) | 42.7 µM (inactive) | 20.9 µM (inactive) | > 82.4 µM (inactive) | > 56 µM (inactive)
Cc1ccc(OCC2OC(n3cnc4c(Br)nc(Br)nc43)CC2Oc2ccc(C)cc2)cc1 (stereo not given) | 2.9 µM (inactive) | 2.32 µM (inactive) | 2.94 µM (inactive) | 7.06 µM (inactive) | 4.55 µM (inactive) | 5.85 µM (inactive) | 3.37 µM (inactive) | 14.3 µM (inactive) | 2.75 µM (inactive) | 12.9 µM (inactive) | 2.34 | 3.08 µM (inactive) | 2.41 µM (inactive) | 4.51 µM (inactive) | 2.59 µM (inactive) | 3.58 µM (inactive) | 1.93 µM (inactive) | 5.04 µM (inactive) | 2.19 µM (inactive)
Cc1ccc(S(=O)(=O)N(CC(O)c2ccccc2)c2ccccc2F)cc1 (stereo not given) | 19.3 µM (inactive) | 20.2 µM (inactive) | 15.7 µM (inactive) | 4.65 µM (inactive) | 16.6 µM (inactive) | 16.2 µM (inactive) | 17.8 µM (inactive) | 16.2 µM (inactive) | 17.9 µM (inactive) | 15.9 µM (inactive) | 17.7 | 16.8 µM (inactive) | 10.2 µM (inactive) | 18 µM (inactive) | 16.4 µM (inactive) | 16.4 µM (inactive) | 16.1 µM (inactive) | 21.7 µM (inactive) | 16.6 µM (inactive)
C/C(=N\NC(=S)Nc1ccccc1)c1nc2cccnc2[nH]1 | 0.826 µM (active) | 1.44 µM (inactive) | 5.65 µM (inactive) | 2.18 µM (inactive) | 9.53 µM (inactive) | 3.7 µM (inactive) | 4.33 µM (inactive) | 1.38 µM (inactive) | 16.9 µM (inactive) | 0.583 µM (active) | 2.66 | 7.08 µM (inactive) | 12.9 µM (inactive) | 0.706 µM (active) | 3.58 µM (inactive) | 2.18 µM (inactive) | 2.31 µM (inactive) | 3.48 µM (inactive) | 1.46 µM (inactive)
O=C1c2ccccc2C(=O)c2c(NC3CCCCC3)ccc(Nc3ccc(S(=O)(=O)O)cc3)c21 | 39.4 µM (inactive) | 38.8 µM (inactive) | 46 µM (inactive) | 23.9 µM (inactive) | 77.1 µM (inactive) | 39.1 µM (inactive) | 20.6 µM (inactive) | 59 µM (inactive) | 21.8 µM (inactive) | 34.8 µM (inactive) | 32.6 | 30.9 µM (inactive) | > 100 µM (inactive) | > 100 µM (inactive) | 35.1 µM (inactive) | 23.4 µM (inactive) | 32.7 µM (inactive) | 32.7 µM (inactive) | 32.2 µM (inactive)
Oc1c2ccccc2c2c3c(cccc13)N=N2 [SP-600125] | 25.9 µM (inactive) | 6.64 µM (inactive) | 15 µM (inactive) | 29.5 µM (inactive) | 23.8 µM (inactive) | 12.8 µM (inactive) | 14.8 µM (inactive) | 10.5 µM (inactive) | 29 µM (inactive) | 18.5 µM (inactive) | 8.04 | 2.62 µM (inactive) | 37.6 µM (inactive) | 37.6 µM (inactive) | > 100 µM (inactive) | 16.4 µM (inactive) | 12.8 µM (inactive) | 11.4 µM (inactive) | 32.2 µM (inactive)
Clc1cccc(/C=c2\nc(-c3ccccc3)n3c2nc2ccccc23)c1 | > 100 µM (inactive) |  | > 100 µM (inactive) | > 100 µM (inactive) | 72.8 µM (inactive) | > 100 µM (inactive) | > 100 µM (inactive) | > 100 µM (inactive) | > 100 µM (inactive) | 40.8 µM (inactive) | > 100 | > 100 µM (inactive) | 4.38 µM (inactive) | > 100 µM (inactive) | > 100 µM (inactive) | > 100 µM (inactive) | > 100 µM (inactive) | > 100 µM (inactive) | 34.4 µM (inactive)
COc1ccc(P2(=S)OC(C)(C)C(C)(C)O2)cc1 | > 100 µM (inactive) | > 100 µM (inactive) | > 100 µM (inactive) | > 100 µM (inactive) | > 100 µM (inactive) | > 100 µM (inactive) | > 100 µM (inactive) | 17.5 µM (inactive) | > 100 µM (inactive) |  | > 100 | > 100 µM (inactive) | > 100 µM (inactive) | > 100 µM (inactive) | > 100 µM (inactive) | > 100 µM (inactive) | > 100 µM (inactive) | > 100 µM (inactive) | > 100 µM (inactive)
Oc1cc(O)c2c(c1)O[C@H](c1cc(O)c(O)c(O)c1)[C@H](O)C2 [EPIGALLOCATECHIN] |  | 21.2 µM (inactive) | 18.8 µM (inactive) | > 100 µM (inactive) | 23.1 µM (inactive) | 6.9 µM (inactive) | 20.5 µM (inactive) | 18.5 µM (inactive) | 7.96 µM (inactive) | 25.4 µM (inactive) | 34.8 |  | 20.7 µM (inactive) | 36.6 µM (inactive) | 23.6 µM (inactive) | > 100 µM (inactive) | 27.9 µM (inactive) | 20.4 µM (inactive) | 20.3 µM (inactive)
